Remaining binding data for 3 compounds are collected here from patent US12275731B2, “Azaindole inhibitors of wild-type and mutant forms of LRRK2” (DANA-FARBER CANCER INSTITUTE, INC., priority 2018, dated 2025).

Holding throughout (experiment): KinomeScan profiling
Common to all, as to assay type: binding

The target of experiment [1] is T1, MAPKAPK5 (Homo sapiens, UniProt Q8IW41).
T1 sequence (Q8IW41 1-473): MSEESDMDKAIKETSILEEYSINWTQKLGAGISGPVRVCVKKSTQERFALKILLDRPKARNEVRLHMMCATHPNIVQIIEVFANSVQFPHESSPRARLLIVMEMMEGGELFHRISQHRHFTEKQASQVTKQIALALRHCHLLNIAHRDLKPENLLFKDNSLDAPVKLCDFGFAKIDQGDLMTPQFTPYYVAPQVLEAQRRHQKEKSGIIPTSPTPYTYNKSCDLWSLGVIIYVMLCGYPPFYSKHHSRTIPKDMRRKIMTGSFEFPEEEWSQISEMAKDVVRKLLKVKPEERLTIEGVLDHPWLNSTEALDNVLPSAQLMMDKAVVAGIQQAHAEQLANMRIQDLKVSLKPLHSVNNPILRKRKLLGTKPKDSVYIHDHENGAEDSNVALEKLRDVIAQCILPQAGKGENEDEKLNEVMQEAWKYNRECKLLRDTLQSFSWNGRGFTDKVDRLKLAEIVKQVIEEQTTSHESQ
Conditions: MAPKAPK5, 1 μM; read-out: % control. The gist of the method: (§1)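 Compounds were screened at 1 μM in DMSO across a 468-kinase KinomeScan panel. Binding was expressed as % control, scaled between a positive control (0%) and DMSO (100%) using luminescence signal. A value under 35% counted as active.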

The target of experiment [2] is T2, TAOK2 (Homo sapiens, UniProt Q9UL54).
T2 construct: purchased KinomeScan® (panel service)
T2 sequence (Q9UL54 1-1235): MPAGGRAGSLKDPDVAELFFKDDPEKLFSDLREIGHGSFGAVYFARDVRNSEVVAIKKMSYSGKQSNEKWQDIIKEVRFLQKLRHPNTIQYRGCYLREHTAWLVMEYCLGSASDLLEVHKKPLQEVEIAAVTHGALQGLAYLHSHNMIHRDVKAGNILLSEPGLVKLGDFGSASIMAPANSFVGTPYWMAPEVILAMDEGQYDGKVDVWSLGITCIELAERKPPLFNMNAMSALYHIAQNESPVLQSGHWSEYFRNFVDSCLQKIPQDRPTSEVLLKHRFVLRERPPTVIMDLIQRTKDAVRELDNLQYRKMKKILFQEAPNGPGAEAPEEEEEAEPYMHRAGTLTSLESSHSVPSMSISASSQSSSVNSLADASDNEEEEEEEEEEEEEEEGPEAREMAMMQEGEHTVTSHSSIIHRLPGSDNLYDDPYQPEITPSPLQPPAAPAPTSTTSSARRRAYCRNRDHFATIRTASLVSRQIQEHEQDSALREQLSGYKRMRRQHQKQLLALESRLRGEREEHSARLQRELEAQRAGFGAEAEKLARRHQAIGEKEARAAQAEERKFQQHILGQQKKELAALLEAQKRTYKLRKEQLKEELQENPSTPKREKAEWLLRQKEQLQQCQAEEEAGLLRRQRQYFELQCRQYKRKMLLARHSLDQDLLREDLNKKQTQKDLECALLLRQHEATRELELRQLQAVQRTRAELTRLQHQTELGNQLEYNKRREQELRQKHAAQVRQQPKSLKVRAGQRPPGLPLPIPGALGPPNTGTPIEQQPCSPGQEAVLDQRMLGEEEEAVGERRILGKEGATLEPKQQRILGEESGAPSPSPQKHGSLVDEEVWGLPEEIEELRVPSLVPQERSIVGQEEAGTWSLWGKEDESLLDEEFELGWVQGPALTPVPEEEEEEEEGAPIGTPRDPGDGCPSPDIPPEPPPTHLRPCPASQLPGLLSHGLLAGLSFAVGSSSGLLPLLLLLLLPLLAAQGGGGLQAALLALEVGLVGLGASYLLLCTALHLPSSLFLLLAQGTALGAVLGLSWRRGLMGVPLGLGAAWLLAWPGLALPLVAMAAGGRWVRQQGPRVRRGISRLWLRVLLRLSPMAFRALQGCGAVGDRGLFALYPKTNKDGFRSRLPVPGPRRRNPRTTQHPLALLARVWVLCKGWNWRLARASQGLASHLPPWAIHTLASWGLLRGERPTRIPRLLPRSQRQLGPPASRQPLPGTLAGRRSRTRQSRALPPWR
Conditions: TAOK2, 1 μM; read-out: % control. The gist of the method:
as §1

The target of experiment [3] is DAPK2 (Homo sapiens, UniProt Q9UIK4). Conditions: DAPK2, 1 μM; read-out: % control. An outline of the steps:
as §1

The target in experiment [4] is T3, HASPIN (Homo sapiens, UniProt Q8TF76).
T3 sequence (Q8TF76 1-798): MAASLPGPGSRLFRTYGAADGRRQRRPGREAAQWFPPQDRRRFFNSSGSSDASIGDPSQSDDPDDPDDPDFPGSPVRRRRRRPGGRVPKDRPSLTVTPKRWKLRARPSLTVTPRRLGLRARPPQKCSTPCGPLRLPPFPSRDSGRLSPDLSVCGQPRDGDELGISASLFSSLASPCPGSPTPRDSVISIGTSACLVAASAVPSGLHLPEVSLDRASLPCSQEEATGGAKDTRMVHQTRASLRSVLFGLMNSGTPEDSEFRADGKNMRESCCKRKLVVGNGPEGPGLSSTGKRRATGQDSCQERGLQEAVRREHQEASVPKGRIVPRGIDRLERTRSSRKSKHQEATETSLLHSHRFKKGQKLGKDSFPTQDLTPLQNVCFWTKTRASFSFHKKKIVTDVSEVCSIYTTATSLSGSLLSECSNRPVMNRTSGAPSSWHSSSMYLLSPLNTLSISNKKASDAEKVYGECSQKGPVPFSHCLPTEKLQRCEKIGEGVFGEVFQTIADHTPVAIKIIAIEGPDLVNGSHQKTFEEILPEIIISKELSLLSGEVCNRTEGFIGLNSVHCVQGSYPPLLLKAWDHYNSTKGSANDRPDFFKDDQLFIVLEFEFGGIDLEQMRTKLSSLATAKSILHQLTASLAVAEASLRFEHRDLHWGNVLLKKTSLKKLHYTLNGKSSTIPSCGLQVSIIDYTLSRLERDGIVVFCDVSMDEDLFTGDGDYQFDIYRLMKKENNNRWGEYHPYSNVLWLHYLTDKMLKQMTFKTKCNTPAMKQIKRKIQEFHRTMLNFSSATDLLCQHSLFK
Conditions: read-out: % control. An outline of the steps:
as §1

Experiment [5] concerns the target T4, KIT(V559D, T670I) (Homo sapiens, UniProt P10721, T670I/V559D).
T4 construct: purchased KinomeScan®
Conditions: read-out: % control. An outline of the steps:
as §1

Chain of DAPK2 (Q9UIK4 whole entry): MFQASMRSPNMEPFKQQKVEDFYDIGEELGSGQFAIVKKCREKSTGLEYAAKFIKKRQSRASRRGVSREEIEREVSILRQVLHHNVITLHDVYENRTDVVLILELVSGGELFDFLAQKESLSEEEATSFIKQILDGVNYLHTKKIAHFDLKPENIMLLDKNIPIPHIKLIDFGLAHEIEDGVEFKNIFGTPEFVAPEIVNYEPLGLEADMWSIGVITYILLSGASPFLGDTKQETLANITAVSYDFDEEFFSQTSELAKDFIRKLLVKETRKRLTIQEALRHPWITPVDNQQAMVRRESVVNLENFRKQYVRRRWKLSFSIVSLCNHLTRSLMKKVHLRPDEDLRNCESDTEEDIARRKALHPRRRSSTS
T4 sequence (P10721 26-976 V559D/T670I): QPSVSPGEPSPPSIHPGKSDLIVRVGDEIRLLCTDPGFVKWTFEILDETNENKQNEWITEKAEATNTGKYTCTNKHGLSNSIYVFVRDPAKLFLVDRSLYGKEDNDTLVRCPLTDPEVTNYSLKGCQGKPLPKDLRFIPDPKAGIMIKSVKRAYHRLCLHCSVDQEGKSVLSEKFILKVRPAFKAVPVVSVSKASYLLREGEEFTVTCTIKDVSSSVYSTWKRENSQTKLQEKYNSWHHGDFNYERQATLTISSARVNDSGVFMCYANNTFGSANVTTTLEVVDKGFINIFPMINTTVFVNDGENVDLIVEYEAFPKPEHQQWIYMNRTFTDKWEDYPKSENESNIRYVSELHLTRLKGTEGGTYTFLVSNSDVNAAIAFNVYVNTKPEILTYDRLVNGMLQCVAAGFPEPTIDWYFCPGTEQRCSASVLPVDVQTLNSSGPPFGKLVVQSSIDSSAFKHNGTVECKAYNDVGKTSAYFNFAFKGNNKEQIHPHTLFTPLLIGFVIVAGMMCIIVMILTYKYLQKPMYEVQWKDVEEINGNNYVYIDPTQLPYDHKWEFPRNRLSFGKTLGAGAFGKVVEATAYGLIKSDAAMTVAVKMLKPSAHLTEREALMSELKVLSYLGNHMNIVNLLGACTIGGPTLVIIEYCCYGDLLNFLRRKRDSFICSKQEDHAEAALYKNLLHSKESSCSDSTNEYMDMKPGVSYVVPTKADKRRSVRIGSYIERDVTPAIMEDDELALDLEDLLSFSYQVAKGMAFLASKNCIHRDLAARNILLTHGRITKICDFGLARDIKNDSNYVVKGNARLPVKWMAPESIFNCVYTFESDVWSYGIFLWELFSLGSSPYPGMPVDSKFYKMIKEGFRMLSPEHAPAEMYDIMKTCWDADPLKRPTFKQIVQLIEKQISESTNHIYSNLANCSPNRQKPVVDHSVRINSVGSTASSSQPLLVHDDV

For `CNc1c(-c2cnn([C@H]3CCN(C(C)=O)C[C@@H]3F)c2)cnc2[nH]cc(Cl)c12` [Compound 77, 1-((3S,4S)-4-(4-(3-chloro-4-(methylamino)-1H-pyrrolo[2,3-b]pyridin-5-yl)-1H-pyrazol-1-yl)-3-fluoropiperidin-1-yl)ethan-1-one], the remaining binding at 1 µM in experiment [1] was determined as 100%; in experiment [2], 69%; in experiment [3], 72%; in experiment [4] it was 9.8%; in experiment [5], 9.7%.
Turning to `CNc1c(-c2ccc(C(=O)N3CCC(N4CCOCC4)CC3)cc2)cnc2[nH]cc(Cl)c12` [Compound 96, (4-(3-chloro-4-(methylamino)-1H-pyrrolo[2,3-b]pyridin-5-yl)phenyl)(4-morpholinopiperidin-1-yl)methanone], the remaining binding at 1 µM in experiment [1] was found to be 100%; in experiment [2], 69%; in experiment [3], 82%; in experiment [4], 1.3%; in experiment [5], 27%.
In the same order, the values of `O=C(c1ccc(-c2cnc3[nH]cc(Cl)c3c2NC2CCCC2)cc1)N1CCC(N2CCOCC2)CC1` [Compound 101, (4-(3-chloro-4-(cyclopentylamino)-1H-pyrrolo[2,3-b]pyridin-5-yl)phenyl)(4-morpholinopiperidin-1-yl)methanone] are 100%, 81%, 100%, 22% and 71%.
